In US20250332300A1 (priority 2024, published 2025):
Counter-ions that a name gives are not always drawn. Like-named read-outs stand apart in the source and are kept apart here. Starred links: 1 amine or outer side, 2 acyl side, 3 side chain; linkers in the order of their positions; H or OH if unused. Positions of bridges follow the written chain, without caps; N, C: chain ends. Non-standard residues stand in square brackets, D forms with d. Residues, ends and D or L forms follow the SMILES beside them. Nle(4-yne,6-yl) = O=C([C@H](CC#CC[*:3])N[*:1])[*:2]; Trp(5-OH) = N[C@@H](Cc1c[nH]c2ccc(O)cc12)C(=O)O; NMePhe(4-F) = CN[C@@H](Cc1ccc(F)cc1)C(=O)O; NMehPhe = CN[C@@H](CCc1ccccc1)C(=O)O; Aad = N[C@@H](CCCC(=O)O)C(=O)O; Gly(cPr) = N[C@H](C(=O)O)C1CC1; Ahp(2) = CCCCC[C@H](N)C(=O)O; NMeDab = CN[C@@H](CCN)C(=O)O; NMeK = CN[C@@H](CCCCN)C(=O)O; NMeDap = CN[C@@H](CN)C(=O)O; NMeC = CN[C@@H](CS)C(=O)O; NMeS = CN[C@@H](CO)C(=O)O

How the values were obtained:
Assay type in all cases: binding
mouse HER2 (23-653) [1] = target: T1, mouse HER2 (23-653) (Mus musculus, UniProt P70424); experiment: TR-FRET competition assay for peptide potency, mouse HER2; set-up: mouse HER2 (23-653) using a Cy5 labeled peptide as a probe; made in house; host or cells: mammalian cells
mouse HER2 (23-653) [2] = target: T1, mouse HER2 (23-653); experiment: Surface plasmon resonance (SPR) for assessment of peptide affinity, mouse HER2; set-up: mouse HER2 (23-653) using a Cy5 labeled peptide as a probe; made in house
Description: Each protein was immobilized either onto a SA sensorchip (Cytiva, BR-1005-31) or CM5 sensorchip (Cytiva, BR-1005-30) to a density of 800-2000 RU.

human HER2 (23-652) [3] = target: T2, human HER2 (23-652) (Homo sapiens, UniProt P04626); experiment: TR-FRET competition assay for peptide potency, human HER2; set-up: towards human HER2 (23-652) and mouse HER2 (23-653); made in house; host or cells: mammalian cells
human HER2 (23-652) [4] = target: T2, human HER2 (23-652); experiment: Surface plasmon resonance (SPR) for assessment of peptide affinity, human HER2; set-up: towards human HER2 (23-652) and mouse HER2 (23-653); made in house
Procedure, shortened: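 Binding kinetics fitted from sensorgrams with 280 s peptide association then 3000 s dissociation (30 uL/min), using HER2 (23-652) either directly immobilized (SA/CM5) or anti-Fc-captured; 3 M magnesium chloride used for regeneration.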

[5] = TR-FRET competition with Cy5 labeled peptide probe, 0.1 nM mouse HER2, 24 h incubation, read-out: moHER2 TR-FRET IC50
[6] = SPR, mouse HER2 extracellular domain, 25° C., 1:1 binding model, read-out: moHER2-SPR-ONC KD
[7] = SPR, human HER2 extracellular domain, 25° C., 1:1 binding model, read-out: huHER2-SPR-ONC KD
[8] = huHER2 TR-FRET IC50, TR-FRET competition with Cy5 labeled peptide probe, 0.1 nM human HER2, 24 h incubation

CC(=O)N[C@H]1CCC(=O)NC[C@@H](C(=O)N(C)[C@@H](Cc2ccc(F)cc2)C(N)=O)NC(=O)[C@H](C2CC2)NC(=O)[C@H](Cc2c[nH]c3ccccc23)NC(=O)[C@H](Cc2c[nH]c3ccc(O)cc23)NC(=O)[C@H](CO)N(C)C(=O)[C@H](CCc2ccccc2)N(C)C(=O)[C@H](CO)NC(=O)[C@H](Cc2ccc(O)cc2)NC1=O [Example A12, (3S,6S,9S,12S,15S,18S,21S,24S,27S)-9-((1H-indol-3-yl)methyl)-27-acetamido-N-((S)-1-amino-3-(4-fluorophenyl)-1-oxopropan-2-yl)-6-cyclopropyl-12-((5-hydroxy-1H-indol-3-yl)methyl)-24-(4-hydroxybenzyl)-15,21-bis(hydroxymethyl)-N,16,19-trimethyl-5,8,11,14,17,20,23,26,30-nonaoxo-18-phenethyl-1,4,7,10,13,16,19,22,25-nonaazacyclotriacontane-3-carboxamide]
IC50 (mouse HER2 (23-653) [1]; [5]): > 1000 nM | Kd (mouse HER2 (23-653) [2]; [6]): 864 nM | IC50 (human HER2 (23-652) [3]; read-out: huHER2 TR-FRET IC50): > 1000 nM | Kd (human HER2 (23-652) [4]; [7]): 1340 nM

CC(=O)NCCCC[C@H]1C(=O)N[C@@H](Cc2c[nH]c3ccc(O)cc23)C(=O)N[C@@H](Cc2c[nH]c3ccccc23)C(=O)N[C@@H](C2CC2)C(=O)N(C)[C@H](C(=O)N(C)[C@@H](Cc2ccc(F)cc2)C(=O)N[C@@H](CCCCN)C(N)=O)CNC(=O)CCC[C@H](NC(C)=O)C(=O)N[C@@H](Cc2ccc(O)cc2)C(=O)N[C@@H](CO)C(=O)N(C)[C@@H](CCc2ccccc2)C(=O)N1C [Example A40, TFA salt]
IC50 (mouse HER2 (23-653) [1]; [5]): 0.2 nM | Kd (mouse HER2 (23-653) [2]; [6]): < 0.1 nM | IC50 (human HER2 (23-652) [3]; [8]): < 0.1 nM | Kd (human HER2 (23-652) [4]): < 0.1 nM

CC(=O)NCCCC[C@H]1C(=O)N[C@@H](Cc2c[nH]c3ccc(O)cc23)C(=O)N[C@@H](Cc2c[nH]c3ccccc23)C(=O)N[C@@H]([C@H](C)O)C(=O)N(C)[C@H](C(=O)N(C)[C@@H](Cc2ccc(F)cc2)C(=O)N[C@@H](CCCCNC(=O)CN2CCN(CC(=O)O)CCN(CC(=O)O)CCN(CC(=O)O)CC2)C(N)=O)CNC(=O)CC[C@H](NC(C)=O)C(=O)N[C@@H](Cc2ccc(O)cc2)C(=O)N[C@@H](CO)C(=O)N(C)[C@@H](CCc2ccccc2)C(=O)N1C [Example C25]
IC50 (mouse HER2 (23-653) [1]; [5]): 6.1 nM | IC50 (mouse HER2 (23-653) [1]; value in parentheses (**): recalculated after further repetition, read-out: moHER2 TR-FRET IC50, recalculated value achieved after further repetition): 3.7 nM | Kd (mouse HER2 (23-653) [2]; [6]): 2 nM | IC50 (human HER2 (23-652) [3]; value in parentheses (**): recalculated after further repetition, read-out: huHER2 TR-FRET IC50, recalculated value achieved after further repetition): 0.9 nM | Kd (human HER2 (23-652) [4]; [7]): 0.6 nM

CCCCC[C@@H]1NC(=O)[C@H](CCCCNC(C)=O)N(C)C(=O)[C@H](CCc2ccccc2)N(C)C(=O)[C@H](CO)NC(=O)[C@H](Cc2ccc(O)cc2)NC(=O)[C@@H](NC(C)=O)CCCC(=O)NC[C@@H](C(=O)N(C)[C@@H](Cc2ccc(F)cc2)C(N)=O)N(C)C(=O)[C@H](C2CC2)NC(=O)[C@H](Cc2c[nH]c3ccccc23)NC1=O [Example A11, (3S,6S,9S,12S,15S,18S,21S,24S,27S)-9-((1H-indol-3-yl)methyl)-27-acetamido-15-(4-acetamidobutyl)-N-((S)-1-amino-3-(4-fluorophenyl)-1-oxopropan-2-yl)-6-cyclopropyl-24-(4-hydroxybenzyl)-21-(hydroxymethyl)-N,4,16,19-tetramethyl-5,8,11,14,17,20,23,26,31-nonaoxo-12-pentyl-18-phenethyl-1,4,7,10,13,16,19,22,25-nonaazacyclohentriacontane-3-carboxamide] (Ac-[Aad]YS[NMehPhe][NMeK](Ac)[Ahp(2)]W[Gly(cPr)][NMeDap][NMePhe(4-F)]-NH2; lactam 1-9)
IC50 (mouse HER2 (23-653) [1]; [5]): > 1000 nM | Kd (mouse HER2 (23-653) [2]; [6]): 786 nM | IC50 (human HER2 (23-652) [3]; read-out: huHER2 TR-FRET IC50): 966 nM | Kd (human HER2 (23-652) [4]; [7]): 445 nM

CN1C(=O)[C@H](CO)NC(=O)[C@H](Cc2ccc(O)cc2)NC(=O)[C@@H](N)CC#CCSC[C@@H](C(=O)N(C)[C@@H](Cc2ccc(F)cc2)C(N)=O)N(C)C(=O)[C@H](C2CC2)NC(=O)[C@H](Cc2c[nH]c3ccccc23)NC(=O)[C@H](Cc2c[nH]c3ccc(O)cc23)NC(=O)[C@H](CO)N(C)C(=O)[C@@H]1CCc1ccccc1 [Example A52, (3R,6S,9S,12S,15S,18S,21S,24S,27S)-9-((1H-indol-3-yl)methyl)-27-amino-N—((S)-1-amino-3-(4-fluorophenyl)-1-oxopropan-2-yl)-6-cyclopropyl-12-((5-hydroxy-1H-indol-3-yl)methyl)-24-(4-hydroxybenzyl)-15,21-bis(hydroxymethyl)-N,4,16,19-tetramethyl-5,8,11,14,17,20,23,26-octaoxo-18-phenethyl-1-thia-4,7,10,13,16,19,22,25-octaazacyclohentriacont-29-yne-3-carboxamide TFA salt] (H-[Nle(4-yne,6-yl)]YS[NMehPhe][NMeS][Trp(5-OH)]W[Gly(cPr)][NMeC][NMePhe(4-F)]-NH2; thioether 1-9)
IC50 (mouse HER2 (23-653) [1]; [5]): > 1000 nM | Kd (mouse HER2 (23-653) [2]; [6]): 570 nM | IC50 (human HER2 (23-652) [3]; [8]): 427 nM | IC50 (human HER2 (23-652) [3]; huHER2 TR-FRET IC50, recalculated value achieved after further repetition, value in parentheses (**): recalculated after further repetition): 567 nM | Kd (human HER2 (23-652) [4]): 997 nM

CN1C(=O)[C@H](Cc2ccc(O)cc2)NC(=O)[C@@H](N)CCC(=O)NC[C@@H](C(=O)N(C)[C@@H](Cc2ccc(F)cc2)C(N)=O)N(C)C(=O)[C@H](C2CC2)NC(=O)[C@H](Cc2c[nH]c3ccccc23)NC(=O)[C@H](Cc2c[nH]c3ccc(O)cc23)NC(=O)[C@H](CO)N(C)C(=O)[C@H](CCc2ccccc2)N(C)C(=O)[C@@H]1CO [Example A38, (3S,6S,9S,12S,15S,18S,21S,24S,27S)-9-((1H-indol-3-yl)methyl)-27-amino-N-((S)-1-amino-3-(4-fluorophenyl)-1-oxopropan-2-yl)-6-cyclopropyl-12-((5-hydroxy-1H-indol-3-yl)methyl)-24-(4-hydroxybenzyl)-15,21-bis(hydroxymethyl)-N,4,16,19,22-pentamethyl-5,8,11,14,17,20,23,26,30-nonaoxo-18-phenethyl-1,4,7,10,13,16,19,22,25-nonaazacyclotriacontane-3-carboxamide TFA salt] (H-EY[NMeS][NMehPhe][NMeS][Trp(5-OH)]W[Gly(cPr)][NMeDap][NMePhe(4-F)]-NH2; lactam 1-9)
IC50 (mouse HER2 (23-653) [1]; moHER2 TR-FRET IC50, TR-FRET competition with Cy5 labeled peptide probe, 0.1 nM mouse HER2, 24 h incubation): 206 nM | Kd (mouse HER2 (23-653) [2]): 67 nM | IC50 (human HER2 (23-652) [3]; [8]): 93 nM | Kd (human HER2 (23-652) [4]): 46 nM

CC(=O)N[C@H]1CC(=O)NCC[C@@H](C(=O)N(C)[C@@H](Cc2ccc(F)cc2)C(N)=O)N(C)C(=O)[C@H](C2CC2)NC(=O)[C@H](Cc2c[nH]c3ccccc23)NC(=O)[C@H](Cc2c[nH]c3ccc(O)cc23)NC(=O)[C@H](CO)N(C)C(=O)[C@H](CCc2ccccc2)N(C)C(=O)[C@H](CO)NC(=O)[C@H](Cc2ccc(O)cc2)NC1=O [Example A9, (2S,5S,8S,11S,14S,17S,20S,23S,29S)-17-((1H-indol-3-yl)methyl)-29-acetamido-N-((S)-1-amino-3-(4-fluorophenyl)-1-oxopropan-2-yl)-20-cyclopropyl-14-((5-hydroxy-1H-indol-3-yl)methyl)-2-(4-hydroxybenzyl)-5,11-bis(hydroxymethyl)-N,7,10,22-tetramethyl-3,6,9,12,15,18,21,27,30-nonaoxo-8-phenethyl-1,4,7,10,13,16,19,22,26-nonaazacyclotriacontane-23-carboxamide] (Ac-DYS[NMehPhe][NMeS][Trp(5-OH)]W[Gly(cPr)][NMeDab][NMePhe(4-F)]-NH2; lactam 1-9)
IC50 (mouse HER2 (23-653) [1]; [5]): 172 nM | Kd (mouse HER2 (23-653) [2]; [6]): 243 nM | IC50 (human HER2 (23-652) [3]; read-out: huHER2 TR-FRET IC50): 75 nM | Kd (human HER2 (23-652) [4]; [7]): 117 nM

CC(=O)NCCCC[C@H]1C(=O)N[C@@H](Cc2c[nH]c3ccc(O)cc23)C(=O)N[C@@H](Cc2c[nH]c3ccccc23)C(=O)N[C@@H](C2CC2)C(=O)N(C)[C@H](C(=O)N(C)[C@@H](Cc2ccc(F)cc2)C(=O)N[C@@H](CCCCNC(=O)CCC(C(=O)O)N2CCN(CC(=O)O)CCN(CC(=O)O)CC2)C(N)=O)CNC(=O)CCC[C@H](NC(C)=O)C(=O)N[C@@H](Cc2ccc(O)cc2)C(=O)N[C@@H](CO)C(=O)N(C)[C@@H](CCc2ccccc2)C(=O)N1C (single isomer, unassigned) [Example C35]
Kd (mouse HER2 (23-653) [2]; [6]): < 0.1 nM | IC50 (human HER2 (23-652) [3]; TR-FRET competition with Cy5 labeled peptide probe, 0.1 nM human HER2, 24 h incubation, read-out: huHER2 TR-FRET IC50): < 0.1 nM | Kd (human HER2 (23-652) [4]; [7]): < 0.1 nM
